Converted amounts (≈) assume the structure as drawn.
Key:
Staphylococcus aureus [1] = assay: Antimicrobial activity against methicillin-resistant Staphylococcus aureus; format: functional
Staphylococcus aureus [2] = assay: Antimicrobial activity against methicillin-susceptible Staphylococcus aureus; format: functional
Bacillus subtilis [3] = assay: Antimicrobial activity against Bacillus subtilis ATCC 14579; format: functional
Bacillus subtilis [4] = assay: Antimicrobial activity against Bacillus subtilis ATCC 6633; format: functional
Enterococcus faecalis [5] = assay: Antimicrobial activity against Enterococcus faecalis ATCC 29212; format: functional
Enterococcus faecalis [6] = assay: Antimicrobial activity against Enterococcus faecalis ATCC 51299; format: functional
Enterococcus faecalis [7] = assay: Antimicrobial activity against Enterococcus faecalis ATCC 51559; format: functional
Micrococcus luteus = assay: Antimicrobial activity against Micrococcus luteus ATCC 10240; format: functional
[8] = test system: Staphylococcus epidermidis; assay: Antimicrobial activity against Staphylococcus epidermidis ATCC 12228; format: functional
[9] = test system: Staphylococcus saprophyticus; assay: Antimicrobial activity against Staphylococcus saprophyticus ATCC 15305; format: functional
Streptococcus pneumoniae = assay: Antimicrobial activity against Streptococcus pneumoniae ATCC 49150; format: functional
[10] = test system: Streptococcus dysgalactiae; assay: Antimicrobial activity against Streptococcus dysgalactiae ATCC 12388; format: functional
[11] = test system: Streptococcus dysgalactiae; assay: Antimicrobial activity against Streptococcus dysgalactiae ATCC 12394; format: functional
Streptococcus pyogenes [12] = assay: Antimicrobial activity against Streptococcus pyogenes ATCC 19615; format: functional
Streptococcus sanguinis = assay: Antimicrobial activity against Streptococcus sanguinis ATCC 10556; format: functional
Streptococcus agalactiae = assay: Antimicrobial activity against Streptococcus agalactiae ATCC 13813; format: functional
Streptococcus pyogenes [13] = assay: Antimicrobial activity against Streptococcus pyogenes ATCC 12386; format: functional
Escherichia coli [14] = assay: Antimicrobial activity against Escherichia coli ATCC 12435; format: functional
Escherichia coli [15] = assay: Antimicrobial activity against Escherichia coli ATCC 35333; format: functional
Pseudomonas aeruginosa [16] = assay: Antimicrobial activity against Pseudomonas aeruginosa ATCC 19142; format: functional
Pseudomonas aeruginosa [17] = assay: Antimicrobial activity against Pseudomonas aeruginosa ATCC 39324; format: functional
Salmonella enterica [18] = assay: Antimicrobial activity against Salmonella Typhimurium ATCC 14028; format: functional, Salmonella enterica subsp. enterica serovar Typhimurium
Salmonella enterica [19] = assay: Antimicrobial activity against Salmonella Typhimurium ATCC 13311; format: functional, Salmonella enterica subsp. enterica serovar Typhimurium
[20] = test system: Staphylococcus epidermidis; assay: Antimicrobial activity against Staphylococcus epidermidis ATCC 13518; format: functional
[21] = test system: Staphylococcus epidermidis; assay: Antimicrobial activity against Staphylococcus epidermidis ATCC 35983; format: functional

`Cc1[nH]c2ccccc2c1-c1nc(-c2ccc(N(C)C)cc2)c(-c2ccc(N(C)C)cc2)[nH]1` gave an MIC (Staphylococcus aureus [1]) of 2 µg/mL (≈ 4.59 µM) and an MIC (Staphylococcus aureus [2]) of 2 µg/mL (≈ 4.59 µM).
With `Cc1[nH]c2ccccc2c1-c1nc(-c2ccc(Br)cc2)c(-c2ccc(Br)cc2)[nH]1` the MIC (Staphylococcus aureus [1]) was 2 µg/mL (≈ 3.94 µM) and the MIC (Staphylococcus aureus [2]) was 2 µg/mL (≈ 3.94 µM).
Molecule `Brc1ccc2[nH]cc(-c3nc(-c4ccccc4)c(-c4ccccc4)[nH]3)c2c1` has an MIC (Staphylococcus aureus [1]) of 4 µg/mL (≈ 9.65 µM) and an MIC (Staphylococcus aureus [2]) of 4 µg/mL (≈ 9.65 µM).
`Fc1ccc(-c2nc(-c3c[nH]c4ccc(Br)cc34)[nH]c2-c2ccc(F)cc2)cc1` was tested, and the MIC (Staphylococcus aureus [1]) was 1 µg/mL (≈ 2.22 µM), the MIC (Staphylococcus aureus [2]) was 1 µg/mL (≈ 2.22 µM) and the MIC (Bacillus subtilis [3]) was 2 µg/mL (≈ 4.44 µM). It also gave an MIC (Bacillus subtilis [4]) of 2 µg/mL (≈ 4.44 µM), an MIC (Enterococcus faecalis [5]) of 2 µg/mL (≈ 4.44 µM) and an MIC (Enterococcus faecalis [6]) of 2 µg/mL (≈ 4.44 µM). The MIC (Enterococcus faecalis [7]) was 2 µg/mL (≈ 4.44 µM), the MIC (Micrococcus luteus) was 1 µg/mL (≈ 2.22 µM) and the MIC [8] was 2 µg/mL (≈ 4.44 µM). It also gave an MIC [9] of 2 µg/mL (≈ 4.44 µM), an MIC (Streptococcus pneumoniae) of 2 µg/mL (≈ 4.44 µM) and an MIC [10] of 2 µg/mL (≈ 4.44 µM). It also gave an MIC [11] of 2 µg/mL (≈ 4.44 µM), an MIC (Streptococcus pyogenes [12]) of 2 µg/mL (≈ 4.44 µM) and an MIC (Streptococcus sanguinis) of 1 µg/mL (≈ 2.22 µM). It also gave an MIC (Streptococcus agalactiae) of 2 µg/mL (≈ 4.44 µM), an MIC (Streptococcus pyogenes [13]) of 2 µg/mL (≈ 4.44 µM) and an MIC (Escherichia coli [14]) of over 64 µg/mL. The MIC (Escherichia coli [15]) was over 64 µg/mL, the MIC (Pseudomonas aeruginosa [16]) was over 64 µg/mL and the MIC (Pseudomonas aeruginosa [17]) was over 64 µg/mL. The MIC (Salmonella enterica [18]) was over 64 µg/mL, the MIC (Salmonella enterica [19]) was over 64 µg/mL and the MIC [20] was 2 µg/mL (≈ 4.44 µM). It also gave an MIC [21] of 2 µg/mL (≈ 4.44 µM).
Work on `Cc1[nH]c2ccccc2c1-c1nc(-c2ccc(Oc3ccccc3)cc2)c(-c2ccc(Oc3ccccc3)cc2)[nH]1` yielded an MIC (Staphylococcus aureus [2]) of over 64 µg/mL.
`O=[N+]([O-])c1ccc(-c2nc(-c3c[nH]c4ccc(Br)cc34)[nH]c2-c2ccccc2)cc1` gave an MIC (Staphylococcus aureus [2]) of over 64 µg/mL.
For `Fc1ccc(-c2nc(-c3c[nH]c4ccc(Br)cc34)[nH]c2-c2ccccc2)cc1`, the MIC (Staphylococcus aureus [1]) was 2 µg/mL (≈ 4.63 µM) and the MIC (Staphylococcus aureus [2]) was 2 µg/mL (≈ 4.63 µM).
`Brc1ccc2[nH]cc(-c3nc(-c4ccc(-c5ccccc5)cc4)c(-c4ccc(-c5ccccc5)cc4)[nH]3)c2c1` showed an MIC (Staphylococcus aureus [2]) of over 64 µg/mL.
`Cc1[nH]c2ccccc2c1-c1nc(-c2ccccc2)c(-c2ccccc2)[nH]1` was tested, and the MIC (Staphylococcus aureus [1]) was 4 µg/mL (≈ 11.4 µM) and the MIC (Staphylococcus aureus [2]) was 8 µg/mL (≈ 22.9 µM).
Molecule `Cc1[nH]c2ccccc2c1-c1nc(-c2ccc(F)cc2)c(-c2ccc(F)cc2)[nH]1` has an MIC (Staphylococcus aureus [1]) of 4 µg/mL (≈ 10.4 µM) and an MIC (Staphylococcus aureus [2]) of 4 µg/mL (≈ 10.4 µM).
`Cc1[nH]c2ccccc2c1-c1nc(-c2ccc(-c3ccccc3)cc2)c(-c2ccc(-c3ccccc3)cc2)[nH]1` showed an MIC (Staphylococcus aureus [2]) of over 64 µg/mL.
Molecule `Cc1[nH]c2ccccc2c1-c1nc(-c2ccc(Br)cc2)c(-c2ccccc2)[nH]1` has an MIC (Staphylococcus aureus [1]) of 4 µg/mL (≈ 9.34 µM) and an MIC (Staphylococcus aureus [2]) of 4 µg/mL (≈ 9.34 µM).
For `Cc1[nH]c2ccccc2c1-c1nc(-c2ccc(-c3ccccc3)cc2)c(-c2ccccc2)[nH]1`, the MIC (Staphylococcus aureus [1]) was 2 µg/mL (≈ 4.7 µM) and the MIC (Staphylococcus aureus [2]) was 4 µg/mL (≈ 9.4 µM).
`Cc1ccc(-c2nc(-c3c(C)[nH]c4ccccc34)[nH]c2-c2ccccc2)cc1` showed an MIC (Staphylococcus aureus [1]) of 4 µg/mL (≈ 11 µM) and an MIC (Staphylococcus aureus [2]) of 4 µg/mL (≈ 11 µM).
`Cc1[nH]c2ccccc2c1-c1nc(-c2ccc([N+](=O)[O-])cc2)c(-c2ccccc2)[nH]1` gave an MIC (Staphylococcus aureus [1]) of 8 µg/mL (≈ 20.3 µM) and an MIC (Staphylococcus aureus [2]) of 8 µg/mL (≈ 20.3 µM).
With `Cc1[nH]c2ccccc2c1-c1nc(-c2ccc(F)cc2)c(-c2ccccc2)[nH]1` the MIC (Staphylococcus aureus [1]) was 4 µg/mL (≈ 10.9 µM) and the MIC (Staphylococcus aureus [2]) was 4 µg/mL (≈ 10.9 µM).
`Clc1ccc(-c2nc(-c3c[nH]c4ccc(Br)cc34)[nH]c2-c2ccccc2)cc1` was tested, and the MIC (Staphylococcus aureus [1]) was 1 µg/mL (≈ 2.23 µM) and the MIC (Staphylococcus aureus [2]) was 1 µg/mL (≈ 2.23 µM).
In the case of `Cc1ccc(-c2nc(-c3c[nH]c4ccc(Br)cc34)[nH]c2-c2ccccc2)cc1`, the MIC (Staphylococcus aureus [1]) is reported as 2 µg/mL (≈ 4.67 µM) and the MIC (Staphylococcus aureus [2]) is reported as 2 µg/mL (≈ 4.67 µM).
In the case of `Brc1ccc2[nH]cc(-c3nc(-c4ccc(Oc5ccccc5)cc4)c(-c4ccc(Oc5ccccc5)cc4)[nH]3)c2c1`, the MIC (Staphylococcus aureus [2]) is reported as over 64 µg/mL.
`Cc1[nH]c2ccccc2c1-c1nc(-c2ccc(Cl)cc2)c(-c2ccc(Cl)cc2)[nH]1` showed an MIC (Staphylococcus aureus [1]) of 4 µg/mL (≈ 9.56 µM) and an MIC (Staphylococcus aureus [2]) of 4 µg/mL (≈ 9.56 µM).
`Cc1ccc(-c2nc(-c3c(C)[nH]c4ccccc34)[nH]c2-c2ccc(C)cc2)cc1` gave an MIC (Staphylococcus aureus [1]) of 8 µg/mL (≈ 21.2 µM) and an MIC (Staphylococcus aureus [2]) of 8 µg/mL (≈ 21.2 µM).
`Cc1[nH]c2ccccc2c1-c1nc(-c2ccc(Cl)cc2)c(-c2ccccc2)[nH]1` was tested, and the MIC (Staphylococcus aureus [1]) was 8 µg/mL (≈ 20.8 µM) and the MIC (Staphylococcus aureus [2]) was 8 µg/mL (≈ 20.8 µM).
For `Brc1ccc(-c2nc(-c3c[nH]c4ccc(Br)cc34)[nH]c2-c2ccccc2)cc1`, the MIC (Staphylococcus aureus [1]) was 2 µg/mL (≈ 4.06 µM) and the MIC (Staphylococcus aureus [2]) was 2 µg/mL (≈ 4.06 µM).
Work on `Brc1ccc2[nH]cc(-c3nc(-c4ccc(-c5ccccc5)cc4)c(-c4ccccc4)[nH]3)c2c1` yielded an MIC (Staphylococcus aureus [1]) of 4 µg/mL (≈ 8.16 µM) and an MIC (Staphylococcus aureus [2]) of 4 µg/mL (≈ 8.16 µM).
`CN(C)c1ccc(-c2nc(-c3c[nH]c4ccc(Br)cc34)[nH]c2-c2ccc(N(C)C)cc2)cc1` showed an MIC (Staphylococcus aureus [1]) of 2 µg/mL (≈ 4 µM) and an MIC (Staphylococcus aureus [2]) of 2 µg/mL (≈ 4 µM).
`O=[N+]([O-])c1ccc(-c2nc(-c3c[nH]c4ccc(Br)cc34)[nH]c2-c2ccc([N+](=O)[O-])cc2)cc1` showed an MIC (Staphylococcus aureus [2]) of over 64 µg/mL.
In the case of `Brc1ccc(-c2nc(-c3c[nH]c4ccc(Br)cc34)[nH]c2-c2ccc(Br)cc2)cc1`, the MIC (Staphylococcus aureus [2]) is reported as over 64 µg/mL.
Work on `Clc1ccc(-c2nc(-c3c[nH]c4ccc(Br)cc34)[nH]c2-c2ccc(Cl)cc2)cc1` yielded an MIC (Staphylococcus aureus [1]) of 2 µg/mL (≈ 4.14 µM) and an MIC (Staphylococcus aureus [2]) of 2 µg/mL (≈ 4.14 µM).
For `Cc1ccc(-c2nc(-c3c[nH]c4ccc(Br)cc34)[nH]c2-c2ccc(C)cc2)cc1`, the MIC (Staphylococcus aureus [1]) was 4 µg/mL (≈ 9.04 µM) and the MIC (Staphylococcus aureus [2]) was 2 µg/mL (≈ 4.52 µM).
`Cc1[nH]c2ccccc2c1-c1nc(-c2ccc([N+](=O)[O-])cc2)c(-c2ccc([N+](=O)[O-])cc2)[nH]1` was tested, and the MIC (Staphylococcus aureus [2]) was over 64 µg/mL.
In the case of `CC(=O)NC[C@H]1CN(c2ccc(N3CCOCC3)c(F)c2)C(=O)O1` [LINEZOLID], the MIC (Staphylococcus aureus [2]) is reported as 1 µg/mL (≈ 2.96 µM).
In the case of `Cc1onc(-c2ccccc2)c1C(=O)N[C@@H]1C(=O)N2[C@@H]1SC(C)(C)[C@@H]2C(=O)O` [OXACILLIN], the MIC (Staphylococcus aureus [1]) is reported as over 16 µg/mL and the MIC (Staphylococcus aureus [2]) is reported as 0.5 µg/mL (≈ 1.25 µM).
For `CN[C@H](CC(C)C)C(=O)N[C@H]1C(=O)N[C@@H](CC(N)=O)C(=O)N[C@H]2C(=O)N[C@H]3C(=O)N[C@H](C(=O)N[C@H](C(=O)O)c4cc(O)cc(O)c4-c4cc3ccc4O)[C@H](O)c3ccc(c(Cl)c3)Oc3cc2cc(c3O[C@@H]2O[C@H](CO)[C@@H](O)[C@H](O)[C@H]2O[C@H]2C[C@](C)(N)[C@H](O)[C@H](C)O2)Oc2ccc(cc2Cl)[C@H]1O` [VANCOMYCIN], the MIC (Bacillus subtilis [3]) was 1 µg/mL (≈ 0.69 µM), the MIC (Bacillus subtilis [4]) was 0.25 µg/mL (≈ 0.173 µM) and the MIC (Enterococcus faecalis [6]) was 16 µg/mL (≈ 11 µM). For the same molecule, the MIC (Enterococcus faecalis [7]) was over 64 µg/mL, the MIC (Micrococcus luteus) was 0.25 µg/mL (≈ 0.173 µM) and the MIC [9] was 2 µg/mL (≈ 1.38 µM). It also gave an MIC (Streptococcus pneumoniae) of 4 µg/mL (≈ 2.76 µM), an MIC [10] of 0.5 µg/mL (≈ 0.345 µM) and an MIC [11] of 1 µg/mL (≈ 0.69 µM). The MIC (Streptococcus pyogenes [12]) was 1 µg/mL (≈ 0.69 µM), the MIC (Streptococcus sanguinis) was 1 µg/mL (≈ 0.69 µM) and the MIC (Streptococcus agalactiae) was 1 µg/mL (≈ 0.69 µM). For the same molecule, the MIC (Streptococcus pyogenes [13]) was 2 µg/mL (≈ 1.38 µM), the MIC (Escherichia coli [14]) was over 64 µg/mL and the MIC (Escherichia coli [15]) was over 64 µg/mL. For the same molecule, the MIC (Pseudomonas aeruginosa [16]) was over 64 µg/mL, the MIC (Pseudomonas aeruginosa [17]) was over 64 µg/mL and the MIC (Salmonella enterica [18]) was over 64 µg/mL. It also gave an MIC (Salmonella enterica [19]) of over 64 µg/mL and an MIC [20] of 0.5 µg/mL (≈ 0.345 µM).
